From patent publication US10752616B2, “Bicycloheteroaryl-heteroaryl-benzoic acid compounds as retinoic acid receptor beta (RARβ) agonists” (King's College London, priority 2014, dated 2020)
“Also recorded” adds a separate entry of the source.

What was measured:
[1] = biological target: T1, RARγ (Homo sapiens (Human), UniProt P13631); conditions: transactivation, relative to atRA = 1; cited from earlier work
Target sequence in this assay (P13631 whole entry, species assumed): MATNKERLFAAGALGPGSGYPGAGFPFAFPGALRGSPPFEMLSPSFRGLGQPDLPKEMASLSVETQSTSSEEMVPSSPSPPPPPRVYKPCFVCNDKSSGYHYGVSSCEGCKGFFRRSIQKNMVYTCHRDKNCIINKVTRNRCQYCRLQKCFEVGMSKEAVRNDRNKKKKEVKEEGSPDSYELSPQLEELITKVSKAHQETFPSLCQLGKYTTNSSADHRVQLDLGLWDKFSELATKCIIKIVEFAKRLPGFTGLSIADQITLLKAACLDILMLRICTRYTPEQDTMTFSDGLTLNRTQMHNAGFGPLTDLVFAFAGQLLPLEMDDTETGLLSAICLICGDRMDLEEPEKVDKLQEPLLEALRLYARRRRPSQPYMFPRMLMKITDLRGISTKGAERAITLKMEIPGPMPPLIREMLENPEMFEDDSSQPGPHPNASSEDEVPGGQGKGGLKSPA

[2] = biological target: T1, RARγ; assay: Subtype-specific transactivation from Yoshimura et al., 2000, RARγ; type: cell-based; conditions: ratio of relative EC30 (transactivation), Table 6
Target sequence in this assay (P13631 whole entry, species assumed): as above

[3] = biological target: T2, RARα (Homo sapiens (Human), UniProt P10276); conditions: transactivation, relative to atRA = 1; cited from earlier work
Target sequence in this assay (P10276 whole entry, species assumed): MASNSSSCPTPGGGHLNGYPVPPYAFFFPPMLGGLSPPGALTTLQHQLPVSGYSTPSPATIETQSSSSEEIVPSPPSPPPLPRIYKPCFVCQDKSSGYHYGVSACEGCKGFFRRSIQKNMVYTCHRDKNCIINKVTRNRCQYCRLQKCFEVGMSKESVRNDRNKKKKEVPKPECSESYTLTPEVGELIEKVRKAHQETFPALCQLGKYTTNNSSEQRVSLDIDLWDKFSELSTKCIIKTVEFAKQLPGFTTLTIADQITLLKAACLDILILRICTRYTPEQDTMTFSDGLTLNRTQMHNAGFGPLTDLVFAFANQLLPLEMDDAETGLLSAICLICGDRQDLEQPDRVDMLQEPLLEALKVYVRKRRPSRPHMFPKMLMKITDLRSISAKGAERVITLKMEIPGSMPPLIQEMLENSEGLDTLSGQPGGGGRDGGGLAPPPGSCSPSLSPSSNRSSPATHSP

[4] = biological target: T2, RARα; assay: Binding affinity from Yoshimura et al., 2000, RARα; conditions: ratio of relative IC50 (binding), Table 5
Target sequence in this assay (P10276 whole entry, species assumed): as above

[5] = biological target: T2, RARα; assay: Subtype-specific transactivation from Yoshimura et al., 2000, RARα; type: cell-based; conditions: ratio of relative EC30 (transactivation), Table 6
Target sequence in this assay (P10276 whole entry, species assumed): as above

[6] = biological target: T3, RARβ (Homo sapiens (Human), UniProt P10826); conditions: transactivation, relative to atRA = 1; cited from earlier work
Target sequence in this assay (P10826 whole entry, species assumed): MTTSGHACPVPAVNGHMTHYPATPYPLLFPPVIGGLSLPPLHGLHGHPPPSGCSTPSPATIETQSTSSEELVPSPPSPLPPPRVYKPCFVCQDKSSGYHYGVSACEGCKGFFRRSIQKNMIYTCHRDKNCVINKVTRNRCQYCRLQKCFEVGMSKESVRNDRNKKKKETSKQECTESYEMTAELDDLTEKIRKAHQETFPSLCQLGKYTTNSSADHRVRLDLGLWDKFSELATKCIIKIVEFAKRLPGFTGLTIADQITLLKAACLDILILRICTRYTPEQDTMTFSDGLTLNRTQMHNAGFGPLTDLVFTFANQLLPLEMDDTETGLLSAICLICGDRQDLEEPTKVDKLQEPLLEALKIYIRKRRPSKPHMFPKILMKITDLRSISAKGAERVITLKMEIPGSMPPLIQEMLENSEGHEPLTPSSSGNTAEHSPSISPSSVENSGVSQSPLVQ

[7] = test system: rats with severed sensory roots; assay: Severed and re-implanted sensory roots (DRG, left forelimb) in rats; sticky tape tests; type: in vivo; conditions: rat, 1 mg/kg two days after lesion, then three times a week
Protocol: In another example of nerve injury, the four sensory roots from each of four DRG at the level of the left forelimb were severed and re-implanted into the spinal cord.
FIGS. 2A and 2B show two graphs of the time taken for rats to sense sticky tape (FIG. 2A) and to remove sticky tape (FIG. 2B) that is placed on its injured forepaw, as a function of the number of weeks after injury. Rats were treated with 1 mg/kg of the test compound or vehicle two days after lesion, and then three times a week for the period of the experiment. Error bars show SEM. ***P<0.001, students t test, n=3-4 rats for each treatment group. At weeks 3, 4, and 5, there was significant difference between the rats treated with RARβ agonist as compared to rats treated with other retinoid agonists and vehicle.

[8] = biological target: T4, RARα (Mus musculus (Mouse), UniProt P11416); assay: Transactivation assay for RARα (gal4-RAR fusion, pFR-luc reporter, COS-7 cells), Table 2; type: cell-based; conditions: for EC50: Table 2, COS-7 reporter, mean of three or more determinations, inactive = no agonist action at highest concentration tested; for RARα/RARβ ratio: fold-selectivity for RARβ over RARα, >1 = selective for RARβ
Protocol: (§1) Transcriptional transactivation assays were performed with gal4 fusion receptor constructs, created using each of the RAR ligand binding domains of either mouse or human, co-transfected with the pFR-luc (Stratagene) reporter construct in COS-7 cells.
(§2) Briefly, on day 1, 96 well plates were seeded with 8000 cells per well then left to recover overnight. On day 2, the cells were co-transfected with 100 ng of reporter plasmid and 10 ng of the appropriate receptor plasmid per well using lipofectamine (Invitrogen). On day 3, the lipofectamine containing media was replaced by a DMEM without phenol red, followed by the addition of test compound dissolved in 1 μL of DMSO to each well's 100 μL total volume. Finally, on day 4, the cells were lysed and their luciferase substrate was provided by the BrightGlo™ reagent (Promega), the plates were then read on the MicroBeta TriLux™ (Perkin Elmer).
(§3) Data for test compounds are quoted as EC50 values. Where replicate data has been generated, the data are quoted as the mean EC50 from the separate experiments.
(§4) EC50's values are reported as mean values of three or more determinations.

[9] = biological target: T5, RARγ (Mus musculus (Mouse), UniProt P18911); assay: Transactivation assay, mouse RARγ; type: cell-based; conditions: Table 3
Protocol: as §1, §2, §3

[10] = biological target: T4, RARα; assay: Transactivation assay, mouse RARα; type: cell-based; conditions: Table 3
Protocol: as §1, §2, §3

[11] = biological target: T6, RARβ (Mus musculus (Mouse), UniProt P22605); assay: Transactivation assay, mouse RARβ; type: cell-based; conditions: Table 3, read-out: RARβ potency - EC50
Protocol: as §1, §2, §3

[12] = biological target: T6, RARβ; assay: Transactivation assay for RARβ (gal4-RAR fusion, pFR-luc reporter, COS-7 cells), Table 2; type: cell-based; conditions: COS-7 reporter, mean of three or more determinations, species not stated (method: mouse or human)
Protocol: as §1, §2, §3, §4

[13] = biological target: T3, RARβ; assay: Transactivation assay, human RARβ; type: cell-based; conditions: Table 3; Human; read-out: RARβ potency - EC50
Protocol: as §1, §2, §3
Target sequence in this assay (P10826 183-417): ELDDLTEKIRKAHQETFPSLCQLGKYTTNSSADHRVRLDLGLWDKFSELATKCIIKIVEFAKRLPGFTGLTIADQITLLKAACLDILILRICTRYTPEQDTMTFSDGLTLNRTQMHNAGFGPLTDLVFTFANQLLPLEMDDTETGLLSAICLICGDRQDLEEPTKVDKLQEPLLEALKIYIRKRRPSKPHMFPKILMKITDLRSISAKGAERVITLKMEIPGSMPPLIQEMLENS

[14] = biological target: T2, RARα; assay: Transactivation assay, human RARα; type: cell-based; conditions: Table 3; Human
Protocol: as §1, §2, §3
Target sequence in this assay (P10276 183-417): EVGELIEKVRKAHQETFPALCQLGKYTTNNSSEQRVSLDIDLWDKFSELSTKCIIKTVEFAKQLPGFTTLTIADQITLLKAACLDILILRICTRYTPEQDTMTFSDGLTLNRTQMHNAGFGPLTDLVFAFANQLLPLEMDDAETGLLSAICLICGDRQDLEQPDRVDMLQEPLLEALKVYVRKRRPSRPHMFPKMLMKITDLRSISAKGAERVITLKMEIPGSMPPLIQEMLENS

[15] = biological target: T5, RARγ; assay: Transactivation assay for RARγ (gal4-RAR fusion, pFR-luc reporter, COS-7 cells), Table 2; type: cell-based; conditions: for EC50: Table 2, COS-7 reporter, mean of three or more determinations, inactive = no agonist action at highest concentration tested; for RARγ/RARβ ratio: fold-selectivity for RARβ over RARγ, >1 = selective for RARβ
Protocol: as §1, §2, §3, §4

[16] = biological target: T1, RARγ; assay: Transactivation assay, human RARγ; type: cell-based; conditions: Table 3; Human
Protocol: as §1, §2, §3
Target sequence in this assay (P13631 185-419): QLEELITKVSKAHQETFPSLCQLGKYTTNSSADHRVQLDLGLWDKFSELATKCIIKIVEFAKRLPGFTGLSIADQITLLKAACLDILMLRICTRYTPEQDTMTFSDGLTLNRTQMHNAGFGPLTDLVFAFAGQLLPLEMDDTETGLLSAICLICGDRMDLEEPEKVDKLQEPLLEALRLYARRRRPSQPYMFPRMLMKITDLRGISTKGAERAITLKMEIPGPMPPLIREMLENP

[17] = test system: cerebellar neurons; assay: Neurite outgrowth assay, cerebellar neurons in the presence of myelin/MAG; type: cell-based, rat; conditions: cerebellar neurons, in the presence of MAG/myelin, with CD2019
Protocol: Cerebellar neurons isolated from post-natal day 3 rat pups were cultured over monolayers of parental 3T3 cells in control media, or media supplemented with a recombinant MAG-Fc chimera (R&D Systems) used at a final concentration of 20 μg/mL MAG-Fc. The monolayers were established for 24 hours prior to addition of the neurons and the co-cultures were maintained for approximately 21 hours. Following careful fixation with 4% paraformaldehyde, the neurons were immuno-stained with a GAP-43 antibody (from Graham Wilkin, Imperial College), dilution of 1:500, and the mean length of the longest neurite per cell was measured for approximately 120-150 neurons as previously described (see, e.g., Williams et al., 2005). DRG and cortical explants were obtained from adult rats, they were cultured in cellogen as previously described (see, e.g., Corcoran and Maden, 1999). Three explants per treatment were used. Neurite outgrowth was assessed 3 days later by immunohistochemistry with NF200 (Sigma, dilution of 1:200). The average lengths of the neurites were measured using image pro plus software. Media consisted of DMEM-F12 (Invitrogen) containing N2 (Invitrogen) supplemented with glucose (33 mM) and glutamine (2 mM).

T5 sequence (P18911 185-419): as the sequence (P13631 185-419) above
T4 sequence (P11416 183-417): as the sequence (P10276 183-417) above, with R165K counted along it
T6 sequence (P22605 210-444): as the sequence (P10826 183-417) above

Row | SMILES | RARγ relative EC30 [1] | RARγ/RARβ ratio [2] | RARα relative EC30 [3] | RARα/RARβ ratio [5] | RARβ relative EC30 [6] | EC50 [8] | EC50 [12] | EC50 [15] | further results
1 | Cc1ccc(C)c2oc(-c3ccc(-c4ccc(C(=O)O)cc4)[nH]3)cc12 [1b] | 240 ± 30 | 9.60 | 0.37 ± 0.02 | 0.148 | 25 ± 12 |  |  |  | RARα/RARβ ratio [4]: 0.0029
2 | O=C(O)c1ccc(-c2ccc(-c3cc4c(Cl)ccc(Cl)c4o3)[nH]2)cc1 [1c] | 820 ± 290 | 7.45 | 0.70 ± 0.15 | 0.006 | 110 ± 30 |  |  |  | RARα/RARβ ratio [4]: 0.0022
3 | O=C(O)c1ccc(-c2ccc(-c3cc4c(F)ccc(F)c4o3)[nH]2)cc1 [1e] | 1750 ± 750 | 8.33 | 0.80 ± 0.17 | 0.0038 | 210 ± 40 |  |  |  | 
4 | O=C(O)c1ccc(-c2ccc(-c3cc4c(C(F)(F)F)ccc(F)c4o3)[nH]2)cc1 [1f] | 110 ± 20 | 12.9 | 0.29 ± 0.04 | 0.034 | 8.5 ± 0.4 |  |  |  | RARα/RARβ ratio [4]: 0.0038
5 | Cc1ccc(C)c2sc(-c3ccc(-c4ccc(C(=O)O)cc4)[nH]3)cc12 [1j] | 840 ± 360 | 6.46 | 1.3 ± 0.6 | 0.010 | 130 ± 60 |  |  |  | 
6 | Cc1ccc(C)c2oc(-c3nc(-c4ccc(C(=O)O)cc4)no3)cc12 [BHBA-001, 4-(5-(4,7-Dimethylbenzofuran-2-yl)-1,2,4-oxadiazol-3-yl)benzoic acid] |  |  |  |  |  | 0.026 µM | 0.00194 µM | 0.011 µM | Behavioural tests after 5 weeks (severed sensory roots) [7]: performed as well as non-lesioned animals; Selectivity over RARγ [9]: 6-fold; Selectivity over RARα [10]: 14-fold; EC50 [11]: 0.00194 µM; EC50 [13]: 0.00205 µM; Selectivity over RARα [14]: 23-fold; Selectivity over RARγ [16]: 5-fold
7 | Cc1ccc(C)c2oc(-c3nc(-c4ccc(C(=O)O)cc4Cl)no3)cc12 [BHBA-002, 3-Chloro-4-(5-(4,7-dimethylbenzofuran-2-yl)-1,2,4-oxadiazol-3-yl)benzoic acid] |  |  |  |  |  | 0.136 µM | 0.0114 µM | 0.029 µM | RARα/RARβ ratio [8]: 12; Selectivity over RARγ [9]: 3-fold; Selectivity over RARα [10]: 12-fold; EC50 [11]: 0.0115 µM; EC50 [13]: 0.0214 µM; Selectivity over RARα [14]: 12-fold; RARγ/RARβ ratio [15]: 2.5; Selectivity over RARγ [16]: 2-fold
8 | Cc1cc(-c2nc(-c3cc4c(C)ccc(C)c4o3)ns2)ccc1C(=O)O [BHBA-043, 4-(3-(4,7-Dimethylbenzofuran-2-yl)-1,2,4-thiadiazol-5-yl)-2-methylbenzoic acid] |  |  |  |  |  | 0.044 µM | 0.0052 µM | 0.025 µM | 
9 | Cc1ccc(C)c2oc(-c3nsc(-c4ccc(C(=O)O)c(F)c4)n3)cc12 [BHBA-044, 4-(3-(4,7-Dimethylbenzofuran-2-yl)-1,2,4-thiadiazol-5-yl)-2-fluorobenzoic acid] |  |  |  |  |  | 0.026 µM | 0.002 µM | 0.0034 µM | RARα/RARβ ratio [8]: 13; RARγ/RARβ ratio [15]: 1.7
10 | Cc1c(Cl)cc(C)c2oc(-c3nc(-c4ccc(C(=O)O)cc4)no3)cc12 [BHBA-045, 4-(5-(5-Chloro-4,7-dimethylbenzofuran-2-yl)-1,2,4-oxadiazol-3-yl)benzoic acid] |  |  |  |  |  | 0.091 µM | 0.004 µM | 0.04 µM | 
11 | CCCCCCOC(=O)[C@]1(O)C[C@@H]2O[C@@]1(C)n1c3ccccc3c3c4c(c5c6ccccc6n2c5c31)C(=O)NC4 [KT5720] |  |  |  |  |  |  |  |  | Effect on RARβ agonist (CD2019) mediated neurite outgrowth [17]: little or no effect; also recorded: does not affect
12 | O=c1cc(N2CCOCC2)oc2c(-c3ccccc3)cccc12 [LY295002] |  |  |  |  |  |  |  |  | Effect on RARβ agonist (CD2019) mediated neurite outgrowth [17]: neurite outgrowth was severely impeded
